Results taken from US20240383923A1, “HETEROARYL DERIVATIVE AND USE THEREOF” (VORONOI INC., priority 2022, published 2024).
Read-outs that look alike come from different tables or passages of the source.

Legend:
[1] = test system: Ba/F3 HER2 L755S cells; experiment: Inhibition of transduced Ba/F3 cell proliferation, HER2 L755S; format: cell-based; conditions: Mus musculus, BaF3, 72 hours, CellTiter-Glo
Description: (§1) Transduced Ba/F3 cells were cultured by adding 1 μg/mL of puromycin (Invitrogen) to a medium (RPMI-1640) containing 10% fetal bovine serum (FBS). 3,000 Ba/F3 HER2 WT cells were seeded to a white clear bottom 96 well plate (Corning) 24 hours before the Ba/F3 HER2 WT cells were treated with Example compounds. For Ba/F3 HER2 L755S, Ba/F3 HER2 L755P, Ba/F3 HER2 T862A, and Ba/F3 HER2 L869R/T798I cells, 5,000 cells each were seeded to a white clear bottom 96 well plate (Corning) 24 hours before the cells were treated with the compounds. Example Compounds were diluted in dimethylsulfoxide (3-fold diluted, total 11 concentrations) and 0.5 μL each was injected so that the final concentration was 0.2 nM to 10 μM. For the measurement of living cells, the cells were stored at room temperature for 10 minutes using the CellTiter-Glo cell viability reagent (Promega) after 72 hours after the treatment of Example Compounds, and then the luminescence intensity was measured using the reader (SynergyNeo, Biotek). Each test was repeated twice.
(§2) The result value was calculated as a cell growth rate (%) compared to a control group, and the GI50 values were calculated using the software (GraphPad Prism version 8.0), and the results are shown in Table 19 below.

[2] = target: T1, HER2 enzyme (Homo sapiens, UniProt P04626); experiment: Biochemical kinase assay for HER2 (Reaction Biology Corp.); conditions: ATP 10 μM, 3-fold dilution from 10 μM
T1 construct: purchased Reaction Biology Corp. (San Diego, USA); outsourced assay service
T1 sequence (P04626 23-1255): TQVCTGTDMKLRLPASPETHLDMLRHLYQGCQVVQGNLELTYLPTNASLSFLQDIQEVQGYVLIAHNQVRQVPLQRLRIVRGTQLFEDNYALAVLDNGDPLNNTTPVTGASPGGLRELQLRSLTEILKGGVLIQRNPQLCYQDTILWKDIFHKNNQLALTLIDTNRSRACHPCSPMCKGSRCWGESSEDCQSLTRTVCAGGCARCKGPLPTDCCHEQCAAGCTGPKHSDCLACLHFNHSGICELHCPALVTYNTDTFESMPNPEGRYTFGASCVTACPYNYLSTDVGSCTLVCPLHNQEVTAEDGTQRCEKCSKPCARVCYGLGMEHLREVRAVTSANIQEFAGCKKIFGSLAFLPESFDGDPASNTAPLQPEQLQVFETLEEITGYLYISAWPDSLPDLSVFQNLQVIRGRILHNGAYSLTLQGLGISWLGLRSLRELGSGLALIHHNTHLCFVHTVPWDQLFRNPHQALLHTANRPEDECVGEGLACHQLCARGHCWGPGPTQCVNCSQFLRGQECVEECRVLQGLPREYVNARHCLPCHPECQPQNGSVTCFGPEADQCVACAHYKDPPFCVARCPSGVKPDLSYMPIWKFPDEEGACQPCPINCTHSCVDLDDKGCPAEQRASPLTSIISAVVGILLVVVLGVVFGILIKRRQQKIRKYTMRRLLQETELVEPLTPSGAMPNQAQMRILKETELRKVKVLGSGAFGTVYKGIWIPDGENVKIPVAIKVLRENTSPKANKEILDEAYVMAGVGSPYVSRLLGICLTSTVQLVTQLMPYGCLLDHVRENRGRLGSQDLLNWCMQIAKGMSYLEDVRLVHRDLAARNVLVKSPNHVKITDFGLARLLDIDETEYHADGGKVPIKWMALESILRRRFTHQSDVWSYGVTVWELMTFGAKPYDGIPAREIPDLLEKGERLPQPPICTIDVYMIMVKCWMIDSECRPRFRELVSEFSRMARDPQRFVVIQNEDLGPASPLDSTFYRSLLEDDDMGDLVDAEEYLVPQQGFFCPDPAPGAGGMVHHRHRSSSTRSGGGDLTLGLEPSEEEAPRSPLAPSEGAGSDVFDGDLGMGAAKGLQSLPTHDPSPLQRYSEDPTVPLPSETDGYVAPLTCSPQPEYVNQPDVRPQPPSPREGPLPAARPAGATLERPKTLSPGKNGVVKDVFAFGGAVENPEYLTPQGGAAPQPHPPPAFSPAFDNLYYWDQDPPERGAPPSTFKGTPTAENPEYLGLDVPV
Description: A biochemical kinase assay for HER2 was conducted through Reaction Biology Corp. (San Diego, USA).

[3] = test system: N-87 cancer cells; experiment: Inhibition of N-87 cell proliferation (CellTiter-Glo); format: cell-based; conditions: N-87 cells, 72 hours
Description: N-87 cancer cells were cultured by using RPMI-1640 medium with 10% FBS. The N-87 cancer cells were seeded to a white clear bottom 96 well plate (Corning) at 5,000 cells per well 24 hours before the […] cancer cells were treated with Example Compounds. Example Compounds were diluted in dimethylsulfoxide (5-fold diluted, total 11 concentrations) and 0.5 μL each was injected so that the final concentration was […]. For the measurement of living cells, the cells were stored at room temperature for 10 minutes using the CellTiter-Glo cell viability reagent (Promega) after 72 hours after the treatment of Example Compounds, and then the luminescence intensity was measured using the reader (SynergyNeo, Biotek).
The result value was calculated as a cell growth rate (%) compared to a control group. Graphs were plotted and GI50 values were calculated using the GraphPad Prism version 8.0 program, and the results are shown in Table 18 below.

[4] = test system: Ba/F3 HER2 T862A cells; experiment: Inhibition of transduced Ba/F3 cell proliferation, HER2 T862A; format: cell-based; conditions: Mus musculus, BaF3, 72 hours, CellTiter-Glo
Description: as §1, §2

[5] = test system: Ba/F3 HER2 L755P cells; experiment: Inhibition of transduced Ba/F3 cell proliferation, HER2 L755P; format: cell-based; conditions: Mus musculus, BaF3, 72 hours, CellTiter-Glo
Description: as §1, §2

[6] = test system: Ba/F3 HER2 L869R/T798I cells; experiment: Inhibition of transduced Ba/F3 cell proliferation, HER2 L869R/T798I; format: cell-based; conditions: Mus musculus, BaF3, 72 hours, CellTiter-Glo
Description: as §1, §2

[7] = test system: Ba/F3 HER2 WT cells; experiment: Inhibition of transduced Ba/F3 cell proliferation, HER2 WT; format: cell-based; conditions: Mus musculus, BaF3, 72 hours, CellTiter-Glo
Description: as §1, §2

[8] = test system: BT-474 cancer cells; experiment: Inhibition of BT-474 cell proliferation (CellTiter-Glo); format: cell-based; conditions: Homo sapiens, BT-474 cells, 120 hours
In short: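 BT-474 cells in RPMI-1640 with 20% FBS, seeded 48 h before dosing with 11 three-fold dilutions (final 0.2 nM to 10 μM). Viability read by CellTiter-Glo luminescence 120 h after treatment, triplicate tests. GI50 derived from growth rate (%) versus control.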

[9] = test system: HER2 mutant cancers; conditions: cited from earlier work; for objective response rate (ORR): SUMMIT clinical trial; for response of patients with HER2 mutation: phase 1 and 2 clinical trials

Row | SMILES | GI50 [1] | IC50 [2] | GI50 [3] | GI50 [4] | GI50 [5] | GI50 [6] | GI50 [7] | GI50 [8] | objective response rate (ORR) ([9]; HER2 mutant breast cancer patients) | objective response rate (ORR) ([9]; HER2 mutant lung cancer patients) | objective response rate (ORR) ([9]; other cancers having HER2 mutations) | response of patients with HER2 mutation [9]
1 | COc1cc2ncnc(Nc3cc(Cl)c(Oc4cccc(F)c4)cc3OC)c2cc1NC(=O)/C(F)=C\[C@H]1CCCN1C [Example 42, (R,E)-N-(4-((5-chloro-4-(3-fluorophenoxy)-2-methoxyphenyl)amino)-7-methoxyquinazolin-6-yl)-2-fluoro-3-(1-methylpyrrolidin-2-yl)acrylamide] | ≤ 0.05 µM | ≤ 0.05 µM | ≤ 0.05 µM | ≤ 0.05 µM | ≤ 0.05 µM | ≤ 0.05 µM | ≤ 0.05 µM | ≤ 0.05 µM |  |  |  | 
2 | COc1cc2ncnc(Nc3cc(Cl)c(Oc4cccc(F)c4)cc3OC)c2cc1NC(=O)/C=C/[C@H]1CCCN1C [Example 30, (R,E)-N-(4-((5-chloro-4-(3-fluorophenoxy)-2-methoxyphenyl)amino)-7-methoxyquinazolin-6-yl)-3-(1-methylpyrrolidin-2-yl)acrylamide] |  | ≤ 0.05 µM | ≤ 0.05 µM |  |  |  |  | ≤ 0.05 µM |  |  |  | 
3 | CCOc1cc2ncc(C#N)c(Nc3ccc(OCc4ccccn4)c(Cl)c3)c2cc1NC(=O)/C=C/CN(C)C [neratinib] |  |  |  |  |  |  |  |  | 24% | 3.8% | 0% | partial responses
4 | COc1cc2ncnc(Nc3cc(C)c(Oc4ccn5ncnc5c4)cc3OC)c2cc1NC(=O)/C=C/[C@H]1CCCN1C [Example 29, (R,E)-N-(4-((4-([1,2,4]triazolo[1,5-a]pyridin-7-yloxy)-2-methoxy-5-methylphenyl)amino)-7-methoxyquinazolin-6-yl)-3-(1-methylpyrrolidin-2-yl)acrylamide] |  | ≤ 0.05 µM | ≤ 0.05 µM |  |  |  |  | ≤ 0.05 µM |  |  |  | 
5 | COc1cc2ncnc(Nc3cc(Cl)c(Oc4cccc(F)c4)cc3OC)c2cc1NC(=O)/C=C/CN(C)C [Example 25, (E)-N-(4-((5-chloro-4-(3-fluorophenoxy)-2-methoxyphenyl)amino)-7-methoxyquinazolin-6-yl)-4-(dimethylamino)but-2-enamide] |  | ≤ 0.05 µM | ≤ 0.05 µM |  |  |  |  | ≤ 0.05 µM |  |  |  | 
6 | COc1cc2ncnc(Nc3cc(F)c(Oc4ccn5ncnc5c4)cc3OC)c2cc1NC(=O)/C(F)=C/[C@H]1CCCN1C [Example 50, (R,Z)—N-(4-((4-([1,2,4]triazolo[1,5-a]pyridin-7-yloxy)-5-fluoro-2-methoxyphenyl)amino)-7-methoxyquinazolin-6-yl)-2-fluoro-3-(1-methylpyrrolidin-2-yl)acrylamide] | ≤ 0.05 µM | ≤ 0.05 µM | ≤ 0.05 µM | ≤ 0.05 µM | ≤ 0.05 µM | ≤ 0.05 µM | ≤ 0.05 µM | ≤ 0.05 µM |  |  |  | 
7 | C=CC(=O)N1CCC(Oc2cc3c(Nc4cc(Cl)c(Oc5cccc(F)c5)cc4OC)ncnc3cc2OC)CC1 [Example 8, 1-(4-((4-((5-chloro-4-(3-fluorophenoxy)-2-methoxyphenyl)amino)-7-methoxyquinazolin-6-yl)oxy)piperidin-1-yl)prop-2-en-1-one] |  | ≤ 0.05 µM | ≤ 0.05 µM |  |  |  |  | ≤ 0.05 µM |  |  |  | 
8 | COc1cc2ncnc(Nc3cc(C)c(Oc4ccn5ncnc5c4)cc3OC)c2cc1NC(=O)/C(F)=C/[C@H]1CCCN1C [Example 111, (R,Z)—N-(4-((4-([1,2,4]triazolo[1,5-a]pyridin-7-yloxy)-2-methoxy-5-methylphenyl)amino)-7-methoxyquinazolin-6-yl)-2-fluoro-3-(1-methylpyrrolidin-2-yl)acrylamide] |  | ≤ 0.05 µM | ≤ 0.05 µM |  |  |  |  | ≤ 0.05 µM |  |  |  | 
9 | COc1cc2ncnc(Nc3ccc(F)c(Cl)c3)c2cc1NC(=O)/C=C/CN1CCCCC1 [dacomitinib] |  |  |  |  |  |  |  |  |  |  |  | partial responses
10 | COc1cc2ncnc(Nc3cc(Cl)c(Oc4ccn5ncnc5c4)cc3OC)c2cc1NC(=O)/C(F)=C/[C@H]1CCCN1C [Example 128, (R,Z)—N-(4-((4-([1,2,4]triazolo[1,5-a]pyridin-7-yloxy)-5-chloro-2-methoxyphenyl)amino)-7-methoxyquinazolin-6-yl)-2-fluoro-3-(1-methylpyrrolidin-2-yl)acrylamide] | ≤ 0.05 µM | ≤ 0.05 µM | ≤ 0.05 µM | ≤ 0.05 µM | ≤ 0.05 µM | ≤ 0.05 µM | ≤ 0.05 µM | ≤ 0.05 µM |  |  |  | 
